Laboratory results published in patent publication US20230091047A1 (priority 2019, published 2023).
Read-outs that look alike come from different tables or passages of the source.

Columns and labels:
[1] = system: HBV (HepG2.117 cell line, inducibly HBV producing); experiment: Anti-HBV activity: intracellular HBV DNA by real-time PCR in HepG2.117 cells after 3 days of treatment; type: cell-based, hepatitis B virus; conditions: HepG2.117 cells, intracellular HBV DNA by real-time PCR, 3 days of treatment, mean value, read-out: EC50 (μM, mean value)
In short: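 Inducible HBV-producing HepG2.117 line (Tet-off); 3-day exposure to serially diluted compound after induction; real-time PCR of intracellular viral DNA.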

in vitro = type: cell-based; conditions: human, HepG2 or HepG2.117 cells, ATPlite, 3-days incubation (not marked with *), mean value
In short: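 Luminescent ATP quantitation served as the viability endpoint following a 3- or 4-day incubation with test compounds.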

[2] = Hepatitis B virus, HepG2.117, 72 h

SMILES | EC50 [1] | CC50 at 3 days (in vitro) | EC50 [1, 2]
CNC(=O)c1ccc(-n2c(N[C@H](C)c3ccc(OC(F)F)cc3)nc3c(c2=O)C[C@@H](C)N(C(=O)c2ccc(Cl)c(Cl)c2)C3)cc1 [Compound C411a] | 1.02 µM | 47.4 µM | 
CNC(=O)c1ccc(-n2c(NC(C)c3ccc(S(C)(=O)=O)cc3)nc3c(c2=O)C[C@@H](C)N(C(=O)c2ccc(Cl)c(Cl)c2)C3)cc1 (stereo partly shown) [Compound C412] |  | > 50 µM | 1.6 µM
CNC(=O)c1ccc(-n2c(NC(C)c3ccc(C(F)(F)F)cc3)nc3c(c2=O)C[C@@H](C)N(C(=O)c2ccc(Cl)c(Cl)c2)C3)cc1 (stereo partly shown) [Compound C413] |  | 6.5 µM | 0.15 µM
CNC(=O)c1ccc(-n2c(NC(C)C)nc3c(c2=O)C[C@@H](C)N(C(=O)c2ccc(C(F)F)c(Cl)c2)C3)cc1 [Compound C418] |  | > 50 µM | 0.08 µM
CNC(=O)c1ncc(-n2c(NC(C)C)nc3c(c2=O)C[C@@H](C)N(C(=O)c2ccc(Cl)c(Cl)c2)C3)n1C [Compound C419] |  | > 50 µM | 0.19 µM
CNC(=O)c1ccc(-n2c(NC(C)C)nc3c(c2=O)C[C@@H](C)N(C(=O)c2ccc(Cl)c(Cl)c2)C3)c(C(C)C)c1 [Compound C420] | 0.61 µM | 25 µM | 
CNC(=O)c1ccc(-n2c(Nc3cn(C)nn3)nc3c(c2=O)C[C@@H](C)N(C(=O)c2ccc(Cl)c(Cl)c2)C3)cc1 [Compound C421] |  | > 50 µM | > 8.1 µM
CNC(=O)c1ccc(-n2c(NCc3c[nH]nn3)nc3c(c2=O)C[C@@H](C)N(C(=O)c2ccc(Cl)c(Cl)c2)C3)cc1 [Compound C423] |  | > 50 µM | > 7.4 µM
CNC(=O)c1cc(-n2c(NC(C)C)nc3c(c2=O)C[C@@H](C)N(C(=O)c2ccc(Cl)c(Cl)c2)C3)n(C(C)C)n1 [Compound C424] |  | > 50 µM | 0.93 µM
CNC(=O)c1ccc(-n2c(NC(C)C)nc3c(c2=O)C[C@@H](C)N(C(=O)c2ccc(Cl)c(C(F)F)c2)C3)cc1 [Compound C427] |  | > 50 µM | 0.05 µM
CNC(=O)c1ccc(-n2c(NC(C)C)nc3c(c2=O)C[C@@H](C)N(C(=O)c2ccc(Cl)c(C(F)(F)F)c2)C3)cc1 [Compound C428] |  | > 50 µM | 0.03 µM
CNC(=O)c1ccc(-n2c(NC(C)C)nc3c(c2=O)C[C@@H](C)N(C(=O)c2ccc(Cl)c(C)c2)C3)cc1 [Compound C429] |  | > 50 µM | 0.06 µM
CC(C)Nc1nc2c(c(=O)n1-c1ccc(-n3ccnn3)cc1)C[C@@H](C)N(C(=O)c1ccc(Cl)c(Cl)c1)C2 [Compound C430] |  | > 50 µM | 0.06 µM
CNC(=O)c1ccc(-n2c(N[C@@H](C)c3ccc(C)cc3)nc3c(c2=O)C[C@@H](C)N(C(=O)c2ccc(Cl)c(Cl)c2)C3)cc1 [Compound C431] |  | 20.6 µM | 0.03 µM
CNC(=O)c1cc(-n2c(N[C@@H](C)c3ccc(F)cc3)nc3c(c2=O)C[C@@H](C)N(C(=O)c2ccc(Cl)c(Cl)c2)C3)[nH]n1 [Compound C432] |  | 21.4 µM | 0.1 µM
CNC(=O)c1ccc(-n2c(NC(C)c3cc(C)no3)nc3c(c2=O)C[C@@H](C)N(C(=O)c2ccc(Cl)c(Cl)c2)C3)cc1 (stereo partly shown) [Compound C433] |  | > 50 µM | 0.33 µM
CNC(=O)c1ccc(-n2c(NC(C)c3nccs3)nc3c(c2=O)C[C@@H](C)N(C(=O)c2ccc(Cl)c(Cl)c2)C3)cc1 (stereo partly shown) [Compound C434] |  | > 50 µM | 0.57 µM
CNC(=O)c1ccc(-n2c(NC(CC3CC3)c3ccccc3)nc3c(c2=O)C[C@@H](C)N(C(=O)c2ccc(Cl)c(Cl)c2)C3)cc1 (stereo partly shown) [Compound C437] |  | 28.1 µM | 0.44 µM
CNC(=O)c1ccc(-n2c(NC(C)c3ccccc3OC(F)F)nc3c(c2=O)C[C@@H](C)N(C(=O)c2ccc(Cl)c(Cl)c2)C3)cc1 (stereo partly shown) [Compound C438] |  | 31.2 µM | 0.4 µM
CC(C)Nc1nc2c(c(=O)n1-c1cccc(-n3ccnn3)c1)C[C@@H](C)N(C(=O)c1ccc(Cl)c(Cl)c1)C2 [Compound C442] |  | > 50 µM | 0.21 µM
CNC(=O)c1ccc(-n2c(N[C@@H](C)c3ccccc3C(F)(F)F)nc3c(c2=O)C[C@@H](C)N(C(=O)c2ccc(Cl)c(Cl)c2)C3)cc1 [Compound C443] |  | 7.2 µM | 0.45 µM
CNC(=O)c1ccc(-n2c(N3CC4CC3(C)C4)nc3c(c2=O)C[C@@H](C)N(C(=O)c2ccc(Cl)c(Cl)c2)C3)cc1 [Compound C444] |  | 37.6 µM | 0.06 µM
CNC(=O)c1ccc(-n2c(N[C@@H](C)c3ccccc3Cl)nc3c(c2=O)C[C@@H](C)N(C(=O)c2ccc(Cl)c(Cl)c2)C3)cc1 [Compound C445] |  | 24.1 µM | 0.28 µM
CNC(=O)c1ccc(-n2c(O[C@@H](C)C(C)C)nc3c(c2=O)C[C@@H](C)N(C(=O)c2ccc(Cl)c(Cl)c2)C3)cc1 [Compound C446] |  | 27.6 µM | 0.03 µM

SMILES | EC50 [1] | CC50 at 3 days (in vitro) | EC50 [1, 2]
CNc1noc2cc(-n3c(NC(C)C)nc4c(c3=O)C[C@@H](C)N(C(=O)c3ccc(Cl)c(Cl)c3)C4)c(C)cc12 [Compound C447] | 0.1 µM | > 50 µM | 
CC(C)Nc1nc2c(c(=O)n1-c1cccc(-c3cn[nH]n3)c1)C[C@@H](C)N(C(=O)c1ccc(Cl)c(Cl)c1)C2 [Compound C448] |  | 27.9 µM | 0.12 µM
CNC(=O)c1ccc(-n2c(NCC34C5C6C7C5C3C7C64)nc3c(c2=O)C[C@@H](C)N(C(=O)c2ccc(Cl)c(Cl)c2)C3)cc1 (stereo partly shown) [Compound C451] |  | > 50 µM | 0.41 µM
CNC(=O)c1ccc(-n2c(N[C@H]3C[C@@H]3c3ccc(OC)cc3)nc3c(c2=O)C[C@@H](C)N(C(=O)c2ccc(Cl)c(Cl)c2)C3)cc1 [Compound C452] | 2.91 µM | > 50 µM | 
CC(C)Nc1nc2c(c(=O)n1-c1ccc(-c3nn[nH]n3)cc1)C[C@@H](C)N(C(=O)c1ccc(Cl)c(Cl)c1)C2 [Compound C453] |  | > 50 µM | 5.81 µM
CNC(=O)C12C3C4C1C1C2C3C41n1c(NC(C)C)nc2c(c1=O)C[C@@H](C)N(C(=O)c1ccc(Cl)c(Cl)c1)C2 (stereo partly shown) [Compound C456] |  | > 50 µM | 0.4 µM
CNC(=O)c1ccc(-n2c(N(C)Cc3cccc(OC)c3)nc3c(c2=O)C[C@@H](C)N(C(=O)c2ccc(Cl)c(Cl)c2)C3)cc1 [Compound C457] |  | 38.1 µM | 0.1 µM
CNC(=O)c1ccc(-n2c(O[C@H](C)C(C)C)nc3c(c2=O)C[C@@H](C)N(C(=O)c2ccc(Cl)c(Cl)c2)C3)cc1 [Compound C458] |  | 24.8 µM | 0.06 µM
CNC(=O)c1ccc(-n2c(NC(C)C(C)(C)C)nc3c(c2=O)C[C@@H](C)N(C(=O)c2ccc(Cl)c(Cl)c2)C3)cc1 (stereo partly shown) [Compound C459] |  | 28.6 µM | 0.24 µM
CC(C)Nc1nc2c(c(=O)n1-c1ccc(-n3cnnn3)cc1)C[C@@H](C)N(C(=O)c1ccc(Cl)c(Cl)c1)C2 [Compound C460] |  | > 50 µM | 0.09 µM
CNC(=O)c1ccc(-n2c(NC34C5C6C7C5C3C7C64)nc3c(c2=O)C[C@@H](C)N(C(=O)c2ccc(Cl)c(Cl)c2)C3)cc1 (stereo partly shown) [Compound C461] |  | > 50 µM | 1.45 µM
CNC(=O)c1ccc(-n2c(NCc3ccn(-c4ccc(F)cc4)n3)nc3c(c2=O)C[C@@H](C)N(C(=O)c2ccc(Cl)c(Cl)c2)C3)cc1 [Compound C465] |  | 22.6 µM | 0.65 µM
CNC(=O)c1ccc(-n2c(N[C@@H]3CCO[C@H]3c3ccccc3)nc3c(c2=O)C[C@@H](C)N(C(=O)c2ccc(Cl)c(Cl)c2)C3)cc1 [Compound C466] |  | 31.5 µM | 1.43 µM
CNC(=O)c1ccc(-n2c(N3CCCCCC3)nc3c(c2=O)C[C@@H](C)N(C(=O)c2ccc(Cl)c(Cl)c2)C3)cc1 [Compound C467] |  | 30 µM | 0.1 µM
CNC(=O)c1ccc(-n2c(NCc3ccc(-c4nc[nH]n4)cc3)nc3c(c2=O)C[C@@H](C)N(C(=O)c2ccc(Cl)c(Cl)c2)C3)cc1 [Compound C468] |  | > 50 µM | 18.8 µM
CNC(=O)c1ccc(-n2c(NCc3cn(C)nn3)nc3c(c2=O)C[C@@H](C)N(C(=O)c2ccc(Cl)c(Cl)c2)C3)cc1 [Compound C469] |  | > 50 µM | > 25 µM
CNC(=O)c1ccc(-n2c(N3CCOC(C)C3)nc3c(c2=O)C[C@@H](C)N(C(=O)c2ccc(Cl)c(Cl)c2)C3)cc1 (stereo partly shown) [Compound C470] |  | > 50 µM | > 25 µM
CNC(=O)c1ccc(-n2c(NC(C)C)nc3c(c2=O)C[C@@H](C)N(C(=O)c2cc4c(Br)c(C)ccc4[nH]2)C3)cc1 [Compound C471] |  | 21.6 µM | 0.25 µM
CNC(=O)c1ccc(-n2c(NC(C)C)nc3c(c2=O)C[C@@H](C)N(C(=O)c2cc(F)c(Cl)cc2Cl)C3)cc1 [Compound C472] |  | > 50 µM | 0.92 µM
CNC(=O)c1ccc(-n2c(NC(C)C)nc3c(c2=O)C[C@@H](C)N(C(=O)c2n[nH]c4ccc(Cl)cc24)C3)cc1 [Compound C473] |  | > 50 µM | > 25 µM
CNC(=O)c1ccc(-n2c(NC(C)C)nc3c(c2=O)C[C@@H](C)N(C(=O)c2ccc4nnn(C)c4c2)C3)cc1 [Compound C474] |  | > 50 µM | > 25 µM
CNC(=O)c1ccc(-n2c(NC(C)C)nc3c(c2=O)C[C@@H](C)N(C(=O)c2ccc(OC(F)F)c(Cl)c2)C3)cc1 [Compound C475] |  | > 50 µM | 0.07 µM
CNC(=O)c1ccc(-n2c(NC(C)C)nc3c(c2=O)C[C@@H](C)N(C(=O)c2cc(F)c(C(F)(F)F)c(F)c2)C3)cc1 [Compound C476] |  | > 50 µM | 0.12 µM
